≈ marks a conversion by molar mass, not a printed value. Like-named read-outs stand apart in the source and are kept apart here. Starred links: 1 amine or outer side, 2 acyl side, 3 side chain; linkers in the order of their positions; H or OH if unused. Non-standard residues stand in square brackets, D forms with d. Residues, ends and D or L forms follow the SMILES beside them. X2 = COC(=O)[C@@H](NC(=O)[C@@H](C)C[C@@H](C(=O)[*:2])N(C)[*:1])[C@@H](C)O; Trp(1-(1,1-Me2-allyl)) = C=CC(C)(C)n1cc(C[C@H](N)C(=O)O)c2ccccc21; NMeGlu(4S-Me) = C[C@@H](C[C@@H](C(=O)[*:2])N(C)[*:1])C(=O)[*:3]; Tyr(3-NO2) = N[C@@H](Cc1ccc(O)c([N+](=O)[O-])c1)C(=O)O; Gly(E-crotyl) = C/C=C/C[C@H](N)C(=O)O; NMeL = CN[C@@H](CC(C)C)C(=O)O
Legend:
M. tuberculosis H37Rv [1] = test: Antitubercular activity assay, broth dilution, auto-luminescent strain; type: cell-based, Mycobacterium tuberculosis
MCF-7 = test: cells; type: cell-based; conditions: Homo sapiens, MCF7; breast adenocarcinoma cell line
HeLa = test: cells; type: cell-based; conditions: Homo sapiens, cervical carcinoma cell line
HepG2 = test: cells; type: cell-based; conditions: Homo sapiens, hepatocellular carcinoma cell line
A549 = test: Cytotoxicity assay (CCK-8); type: cell-based; conditions: Homo sapiens, lung cancer cell line
HCT116 = test: cells; type: cell-based; conditions: Homo sapiens, HCT-116; colon cancer cell line
L02 = test: cells; type: cell-based; conditions: normal human hepatic cell line
Huvec-12 = test: Cytotoxicity assay (CCK-8); type: cell-based; conditions: normal human umbilical vein endothelial cell line
M. tuberculosis H37Rv [2] = tested on: M. tuberculosis H37Rv; parameters: method as in Ma et al., 2017; conditions: ref Ma et al., 2017; cited from earlier work
[3] = tested on: five human cancer cell lines and two normal cell lines; conditions: MCF-7, A549, HCT116, L02
[4] = tested on: five human cancer cell lines and two normal cell lines; test: cells
[5] = Mycobacterium tuberculosis, H37RV, Day 7th, read-out: MICs against H37Rv, Day 7th
[6] = Mycobacterium tuberculosis, H37RV, Day 14th, read-out: MICs against H37Rv, Day 14th

C=CC(C)(C)n1cc(C[C@@H]2NC(=O)[C@H](C/C=C/C)NC(=O)[C@H](CC(C)C)NC(=O)[C@H](C[C@H](C)C(=O)O)N(C)C(=O)[C@H](C)NC(=O)[C@H](Cc3ccc(O)c([N+](=O)[O-])c3)NC(=O)[C@H](CC(C)C)N(C)C2=O)c2ccccc21 [ilamycin F, reference compound] (cyclo(A[NMeGlu(4S-Me)]L[Gly(E-crotyl)][Trp(1-(1,1-Me2-allyl))][NMeL][Tyr(3-NO2)]))
MIC (M. tuberculosis H37Rv [1]; Mycobacterium tuberculosis, H37RV, Day 3rd, read-out: MICs against H37Rv, Day 3rd): 30.7 µM (≈ 32 µg/mL) | MIC (M. tuberculosis H37Rv [1]; [5]): 15.4 µM (≈ 16.1 µg/mL) | MIC (M. tuberculosis H37Rv [1]; [6]): 1.9 µM (≈ 1.98 µg/mL) | IC50 (MCF-7): 32.2 µM | IC50 (HeLa): 31 µM | IC50 (HepG2): > 50 µM | IC50 (A549): 47 µM | IC50 (HCT116): 44.8 µM | IC50 (L02): 43.9 µM | IC50 (Huvec-12): 46.1 µM | MIC against M. tuberculosis H37Rv (M. tuberculosis H37Rv [2]): 1.2 µM (≈ 1.25 µg/mL)

C=CC(C)(C)n1cc(C[C@@H]2NC(=O)[C@H](C/C=C/C)NC(=O)[C@H](CC(C)C)NC(=O)[C@H](C[C@H](C)C(=O)N[C@H](C(=O)OC)[C@@H](C)O)N(C)C(=O)[C@H](C)NC(=O)[C@H](Cc3ccc(O)c([N+](=O)[O-])c3)NC(=O)[C@H](CC(C)C)N(C)C2=O)c2ccccc21 [Compound 1, ilamycin NJL1] (cyclo(A[X2]L[Gly(E-crotyl)][Trp(1-(1,1-Me2-allyl))][NMeL][Tyr(3-NO2)]))
MIC (M. tuberculosis H37Rv [1]; Day 14th, read-out: MICs against H37Rv, Day 14th): 1.7 µM (≈ 1.97 µg/mL) | MIC (M. tuberculosis H37Rv [1]; [5]): 1.7 µM (≈ 1.97 µg/mL) | MIC (M. tuberculosis H37Rv [1]; [6]): 1.6 to 1.7 µM (≈ 1.85 to 1.97 µg/mL) | IC50 (MCF-7): 9 µM | IC50 (HeLa): 11.3 µM | IC50 (HepG2): 17.7 µM | IC50 (A549): 5.7 µM | IC50 (HCT116): 7.2 µM | IC50 (L02): 6.5 µM | IC50 (Huvec-12): 10.3 µM | promotion of cytotoxicity compared with ilamycin F [3]: 3–8 fold | IC50 ([4]; read-out: IC50 against MCF-7, A549, HCT116, and L02): 5.7 to 9 µM | IC50 ([4]; read-out: IC50 against five human cancer cell lines and two normal cell lines): 5.7 to 11.3 µM
